Structures can show the parent of a compound that is named as a salt.

Sequence of RIPK1 (recombinant GST-RIPK1 kinase domain, residues 1-327) (Q13546 1-327): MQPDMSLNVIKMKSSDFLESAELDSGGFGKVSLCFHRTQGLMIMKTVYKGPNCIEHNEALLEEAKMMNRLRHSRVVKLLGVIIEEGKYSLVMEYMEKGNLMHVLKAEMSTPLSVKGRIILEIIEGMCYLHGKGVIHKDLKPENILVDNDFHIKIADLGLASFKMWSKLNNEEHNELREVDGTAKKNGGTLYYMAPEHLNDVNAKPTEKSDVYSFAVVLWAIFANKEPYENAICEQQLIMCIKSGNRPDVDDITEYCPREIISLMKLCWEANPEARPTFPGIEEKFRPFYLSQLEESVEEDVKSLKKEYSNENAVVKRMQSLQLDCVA

This experiment concerns the target RIPK1 (recombinant GST-RIPK1 kinase domain, residues 1-327) (Homo sapiens (Human), UniProt Q13546). The experiment can be described thus: RIPK1-ADP-Glo Enzymatic Assay. Format: biochemical. Conditions: ADP-Glo; 25 nM GST-RIPK1, 300 μM ATP; assay lower limit ~25 nM; read-out: RIPK1 V0 Ec50. The gist of the method:
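Luminescent ADP-Glo readout of ATP-to-ADP conversion. Conditions: 25 nM enzyme, 300 μM ATP, 3 μM dephospho-MBP, pH 7.3 HEPES buffer with 20 mM MgCl2; 30 min compound pre-incubation, 150 min reaction. EC50 via four-parameter sigmoidal regression; assay floor ~25 nM.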
In general, EC50 refers to the concentration needed to bring the measured effect to its halfway point. For `Cn1nc(N2CCC3(CC2)O[C@@H]2CC[C@@H](c4ccccc4)N2C3=O)ccc1=O` [Example 11.7, (5′S,7a′R)-1-(1-methyl-6-oxo-1,6-dihydropyridazin-3-yl)-5′-phenyltetrahydro-3′H-spiro[piperidine-4,2′-pyrrolo[2,1-b][1,3]oxazol]-3′-one], the EC50 is 91.3 nM.

Take `N#Cc1cccc(CN2CCC3(CC2)O[C@@H]2CC[C@@H](c4cc(F)cc(F)c4)N2C3=O)c1` [Example 22.6, 3-{[(5′S,7a′R)-5′-(3,5-difluorophenyl)-3′-oxotetrahydro-1H,3′H-spiro[piperidine-4,2′-pyrrolo[2,1-b][1,3]oxazol]-1-yl]methyl}benzonitrile]: the EC50 was found to be 234 nM.

Take `O=C1N2[C@@H](CC[C@H]2c2cc(F)cc(F)c2)OC12CCN(c1ccnc3c(F)cnn13)CC2` [Example 3.1, (5′S,7a′R)-5′-(3,5-difluorophenyl)-1-(3-fluoropyrazolo[1,5-a]pyrimidin-7-yl)tetrahydro-3′H-spiro[piperidine-4,2′-pyrrolo[2,1-b]oxazol]-3′-one]: the concentration for a half-maximal effect (EC50) was under 25 nM.

For the compound `O=C1N2[C@@H](CC[C@H]2c2cccc(F)c2)OC12CCN(c1ccnc3ccnn13)CC2` [Example 4.123, (5′S,7a′R)-5′-(3-fluorophenyl)-1-(pyrazolo[1,5-a]pyrimidin-7-yl)tetrahydro-3′H-spiro[piperidine-4,2′-pyrrolo[2,1-b] [1,3]oxazol]-3′-one], the EC50 was under 25 nM.

As for `N#Cc1cnc(N2CCC3(CC2)O[C@@H]2CC[C@@H](c4ccccc4F)N2C3=O)nc1` [Example 4.106, 2-((5′S,7a′R)-5′-(2-fluorophenyl)-3′-oxotetrahydro-3′H-spiro[piperidine-4,2′-pyrrolo[2,1-b]oxazol]-1-yl)pyrimidine-5-carbonitrile], the EC50 came to 30.5 nM.

Take `O=C(c1cc2ccccc2o1)N1CCC2(CC1)O[C@@H]1CC[C@@H](c3cc(F)cc(F)c3)N1C2=O` [Example 5.69]: the EC50 was 45.3 nM.

On to `O=C(c1ccnc2ncnn12)N1CCC2(CC1)O[C@@H]1CC[C@@H](c3cc(F)cc(F)c3)N1C2=O` [Example 6.76, (5′S,7a′R)-5′-(3,5-difluorophenyl)-1-([1,2,4]triazolo[1,5-a]pyrimidine-7-car-bonyl)tetrahydro-3′H-spiro[piperidine-4,2′-pyrrolo[2,1-b] [1,3]oxazol]-3′-one], for which the EC50 was found to be 182 nM.

As for `O=C1N2[C@@H](CC[C@H]2c2ccccc2)OC12CCN(c1cc(-n3ccnc3)ncn1)CC2` [Example 4.171, (5′S,7a′R)-1-[6-(1H-imidazol-1-yl)pyrimidin-4-yl]-5′-phenyltetrahydro-3′H-spiro[piperidine-4,2′-pyrrolo[2,1-b] [1,3]oxazol]-3′-one], the 50% effective concentration (EC50) is under 25 nM.

For the compound `Cc1cc(C#N)cnc1N1CCC2(CC1)O[C@@H]1CC[C@@H](c3cc(F)cc(F)c3)N1C2=O` [Example 4.47, 6-[(5′S,7a′R)-5′-(3,5-difluorophenyl)-3′-oxotetrahydro-1H,3′H-spiro[piperidine-4,2′-pyrrolo[2,1-b] [1,3]oxazol]-1-yl]-5-methylpyridine-3-carbonitrile], the EC50 was under 25 nM.

`Cc1cc(F)c(C(=O)N2CCC3(CC2)O[C@@H]2CC[C@@H](c4cc(F)cc(F)c4)N2C3=O)cc1F` [Example 5.6, (5′S,7a′R)-1-(2,5-difluoro-4-methylbenzene-1-carbonyl)-5′-(3,5-difluoro-phenyl)tetrahydro-3′H-spiro[piperidine-4,2′-pyrrolo[2,1-b][1,3]oxazol]-3′-one]: the EC50 is under 25 nM.

Turning to `N#Cc1ncc(N2CCC3(CC2)O[C@@H]2CC[C@@H](c4cc(F)cc(F)c4)N2C3=O)cn1` [Example 4.45, 5-[(5′S,7a′R)-5′-(3,5-difluorophenyl)-3′-oxotetrahydro-1H,3′H-spiro[piperidine-4,2′-pyrrolo[2,1-b] [1,3]oxazol]-1-yl]pyrimidine-2-carbonitrile], the EC50 was 250 nM.

On to `N#CC1(NC(=O)c2nc(N3CCC4(CC3)O[C@@H]3CC[C@@H](c5cc(F)cc(F)c5)N3C4=O)ncc2F)CCC1` [Example 7.13, N-(1-cyanocyclobutyl)-2-[(5′S,7a′R)-5′-(3,5-difluorophenyl)-3′-oxotetrahydro-1H,3′H-spiro[piperidine-4,2′-pyrrolo[2,1-b][1,3]oxazol]-1-yl]-5-fluoropyrimidine-4-carboxamide], for which the EC50 is 191 nM.

Turning to `C#Cc1cccc(C(=O)N2CCC3(CC2)O[C@@H]2CC[C@@H](c4ccccc4)N2C3=O)c1` [Example 6.141, (5′S,7a′R)-1-(3-ethynylbenzene-1-carbonyl)-5′-phenyl-tetrahydro-3′H-spiro [piperidine-4,2′-pyrrolo[2,1-b][1,3]oxazol]-3′-one], the EC50 was under 25 nM.

For `Cc1cccc(C(=O)N2CCC3(CC2)O[C@@H]2CC[C@@H](c4ccccc4)N2C3=O)c1F` [Example 6.157, (5′S,7a′R)-1-(2-fluoro-3-methylbenzene-1-carbonyl)-5′-phenyl-tetrahydro-3′H-spiro [piperidine-4,2′-pyrrolo[2,1-b][1,3]-oxazol]-3′-one], the EC50 was under 25 nM.

Consider `O=C(c1ccn2ncnc2n1)N1CCC2(CC1)O[C@@H]1CC[C@@H](c3cc(F)cc(F)c3)N1C2=O` [Example 6.87, (5′S,7a′R)-5′-(3,5-difluorophenyl)-1-([1,2,4]triazolo[1,5-a]pyrimidine-5-carbonyl)tetrahydro-3′H-spiro[piperidine-4,2′-pyrrolo[2,1-b] [1,3]oxazol]-3′-one], for which the EC50 is 43.8 nM.

Take `O=C1N2[C@@H](CC[C@H]2c2cc(F)cc(F)c2)OC12CCN(c1cccc3ccnn13)CC2` [Example 15.2, (5′S,7a′R)-5′-(3,5-difluorophenyl)-1-(pyrazolo[1,5-a]pyridin-7-yl)tetrahydro-3′H-spiro[piperidine-4,2′-pyrrolo[2,1-b]oxazol]-3′-one, TFA]: the EC50 is under 25 nM.

On to `COCCN1Cc2nc(N3CCC4(CC3)O[C@@H]3CC[C@@H](c5ccccc5)N3C4=O)ccc2C1=O` [Example 4.191, (5′S,7a′R)-1-[6-(2-methoxyethyl)-5-oxo-6,7-dihydro-5H-pyrrolo[3,4-b]pyridin-2-yl]-5′-phenyltetrahydro-3′H-spiro[piperidine-4,2′-pyrrolo[2,1-b] [1,3]oxazol]-3′-one], for which the EC50 turned out to be 53 nM.

As to `O=C(c1ccccc1)N1CCC2(CC1)SC1CC[C@@H](c3cc(F)cc(F)c3)N1C2=O` (stereo partly drawn) [Example 1.22, (5′S)-1-benzoyl-5′-(3,5-difluorophenyl)tetrahydro-3′H-spiro[piperidine-4,2′-pyrrolo[2,1-b]thiazol]-3′-one], the EC50 is under 25 nM.

Consider `O=C1N2[C@@H](CC[C@H]2c2ccccc2)SC12CCN(c1ccnc3ccnn13)CC2` [Example 4.116, (5′S,7a′R)-5′-phenyl-1-(pyrazolo[1,5-a]pyrimidin-7-yl)tetrahydro-3′H-spiro[piperidine-4,2′-pyrrolo[2,1-b]thiazol]-3′-one], for which the EC50 is under 25 nM.

As to `O=C1N2[C@@H](CO[C@H]2c2cc(F)cc(F)c2)CC12CCN(c1ccnc3ccnn13)CC2` (stereo in doubt) [Example 4.147, 3′-(3,5-difluorophenyl)-1-(pyrazolo[1,5-a]pyrimidin-7-yl)dihydro-1′H,3′H,5′H-spiro[piperidine-4,6′-pyrrolo[1,2-c] [1,3]oxazol]-5′-one], the EC50 was under 25 nM.

Consider `O=C1N2[C@@H](CC[C@H]2c2ccccc2)OC12CCN(c1ncccc1Cl)CC2` [Example 4.256, (5′S,7a′R)-1-(3-chloropyridin-2-yl)-5′-phenyltetrahydro-3′H-spiro[piperidine-4,2′-pyrrolo[2,1-b] [1,3]oxazol]-3′-one], for which the EC50 stood at 25 nM.

As to `O=C1N2[C@@H](CC[C@H]2c2cc(F)cc(F)c2)OC12CCN(c1ncnn3ccnc13)CC2` [Example 4.228, (5′S,7a′R)-5′-(3,5-difluorophenyl)-1-(imidazo[2,1-f] [1,2,4]triazin-4-yl)tetrahydro-3′H-spiro[piperidine-4,2′-pyrrolo[2,1-b] [1,3]oxazol]-3′-one], the EC50 came out at 78.9 nM.

With `O=C1N2[C@@H](CC[C@H]2c2cc(F)cc(F)c2)OC12CCN(S(=O)(=O)c1ccccc1)CC2` [Example 8.1, (5′S,7a′R)-5′-(3,5-Difluorophenyl)-1-(phenylsulfonyl)tetrahydro-3′H-spiro[piperidine-4,2′-pyrrolo[2,1-b]oxazol]-3′-one], the EC50 stood at 728 nM.

Consider `O=C1N2[C@@H](CC[C@H]2c2ccccc2)OC12CCN(c1ncnc3c(F)cnn13)CC2` [Example 4.233, (5′S,7a′R)-1-(8-fluoropyrazolo[1,5-a] [1,3,5]triazin-4-yl)-5′-phenyltetrahydro-3′H-spiro[piperidine-4,2′-pyrrolo[2,1-b] [1,3]oxazol]-3′-one], for which the EC50 was under 25 nM.

For the compound `O=C(c1ccccc1)N1CCC2(CC1)O[C@@H]1CC[C@@H](c3ccc(F)cc3)N1C2=O` [Example 2.8, (5′S,7a′R)-1-benzoyl-5′-(4-fluorophenyl)tetrahydro-3′H-spiro[piperidine-4,2′-pyrrolo[2,1-b]oxazol]-3′-one], the EC50 turned out to be 36.8 nM.

Take `O=C1N2[C@@H](CC[C@H]2c2cc(F)cc(F)c2)OC12CCN(c1cncc3ncnn13)CC2` [Example 13.4, (5′S,7a′R)-1-([1,2,4]triazolo[1,5-a]pyrazin-5-yl)-5′-(3,5-difluorophenyl)tetrahydro-3′H-spiro[piperidine-4,2′-pyrrolo[2,1-b]oxazol]-3′-one, TFA salt]: the EC50 was determined as 56 nM.

Consider `O=C(c1cc(Cl)ccc1F)N1CCC2(CC1)O[C@@H]1CC[C@@H](c3ccccc3F)N1C2=O` [Example 1.14, (5′S,7a′R)-1-(5-chloro-2-fluorobenzoyl)-5′-(2-fluorophenyl)tetrahydro-3′H-spiro[piperidine-4,2′-pyrrolo[2,1-b]oxazol]-3′-one], for which the EC50 was under 25 nM.

Source of the values: patent publication US12180226B2, “Spirotricycle RIPK1 inhibitors and methods of uses thereof” (Merck Sharp & Dohme LLC, priority 2021, dated 2024).
